Columns and labels:
[1] = test system: primary hippocampal neurons; experiment: Antagonist pre-treatment studies of neuronal structural change, Sholl analysis; format: cell-based, rat; settings: for AUC of the Sholl plot / normalised AUC of the Sholl plot: vehicle pre-treated; for neuronal structural complexity (normalised AUC): meta-analysis, combined vehicle pre-treated groups
Experimental: Primary hippocampal cultures were grown on 18 mm glass coverslips at a density of 1×10^6 cells as described. On 3 DIV all cells underwent a full medium change. […] On 4 DIV, all cells underwent a second full medium change. Cells in the combination group were treated with 2 μM 5-MeO-DMT for a further 24 hours with all other groups beginning a 24-hour treatment. After treatment was completed the cells were fixed and processed as described below.
Based on the findings with other psychedelic drugs that share structural and behavioral similarities to 5-MeO-DMT we selected ANA-12 (Sigma), an antagonist of TrkB, the BDNF receptor, and rapamycin (ThermoFischer) an antagonist of the mammalian target of rapamycin (mTOR). Due to the affinity and known behavioral change induced by 5-MeO-DMT at the 5-HT1AR and 5-HT2AR we assessed their contribution to structural changes mediated by 5-MeO-DMT. The receptors were antagonized with WAY-100635 maleate (Tocris) or Ketanserin (Axxora), respectively. For all antagonist studies the antagonist under investigation was added 15 mins prior to drug treatment. […] ANA-12, Ketanserin and rapamycin were dissolved in dimethyl sulfoxide (DMSO) with a final concentration of 0.01-0.04% for treatment. WAY100635 was dissolved in sterile dH2O.
After termination of drug treatment coverslips were processed and imaged as outlined for immunocytochemistry. In all instances NeuN antibody staining was used to visualize projections from the cell body. Images were analyzed using the Simple Neurite Tracer and Sholl analysis plug-ins for ImageJ Fiji. For the Sholl analysis circle radii of 2 μm increments were used. All images were taken and analyzed by an experimenter blinded to treatment conditions.
Statistical Analysis—Data are represented as mean±SEM. Statistical analyses were performed using GraphPad Prism (version 5). For analyses involving comparison of three or more groups, a one-way ANOVA with Bonferroni's post-hoc test was utilized where appropriate. No statistics were calculated for the individual points of the Sholl plots, instead, statistical analyses were performed on the aggregate data, the area under the curve (AUC) of the Sholl plot. Secondary measurements were the Nmax, the maximum number of intersections measured by the Sholl analysis, which indicated the number of projections emanating from a neuron and the average length of primary neurites originating from the cell soma.

hippocampal proteins = experiment: Hippocampal LC-MS/MS proteomics, chronic cocaine with single psychedelic administration; format: in vivo, Male Wister rats
Experimental: Animals were then randomly allocated to one of five groups and received a single i.p. injection of one of vehicle, 5 mg/kg 5-Meo-DMT, 0.14 mg/kg LSD, 1 mg/kg psilocybin, or 1 mg/kg DOI. On day 15, animals were euthanised and the hippocampus blunt dissected, snap frozen in liquid nitrogen and stored at −80° C. until further processing.
Protein from hippocampal tissue was processed for liquid chromatography tandem Mass Spectrometry (LC-MS/MS). Samples were run on a Thermo Scientific Q Exactive Mass Spectrometer connected to a Dionex Ultimate 3000 (RSLCnano) chromatography system in the UCD Conway Institute Core Mass Spectrometry Facility. Peptide and protein identification of MS/MS spectra were searched against the rat UniProt database using carbamidomethylation (C) as a fixed modification and acetylation (protein N terminus) and oxidation (M) as variable modifications with a false discovery rate filtering of 0.01. MaxQuant was using to generate label-free quantitative (LFQ) ion intensities and the Perseus statistical software contained in the MaxQuant package was used to analyse LFQ ion intensity. Statistical significance (p<0.05, FC±20%) of mean LFQ intensity between treatment groups was determined by two sample t-test. […] Networks were visualised using the stringApp (version 1.6.0) plugin for the Cytoscape software platform (version 3.8.2).

[2] = ANA-12 study, 5-MeO-DMT or cocaine alone
[3] = WAY100635 study, 5-MeO-DMT (20 μM) or cocaine (25 μM) alone
[4] = rapamycin study, 5-MeO-DMT or cocaine alone

COC(=O)[C@H]1[C@@H](OC(=O)c2ccccc2)C[C@@H]2CC[C@H]1N2C.Cl [cocaine, cocaine hydrochloride, reference compound]
AUC of the Sholl plot [1, 2]: increased the AUC relative to control
normalised AUC of the Sholl plot [1, 3]: increased the normalised AUC
neuronal structural complexity (normalised AUC) ([1]; agent alone): significantly increased neuronal structural complexity
normalised AUC of the Sholl plot [1, 4]: increased the normalised AUC
significantly regulated proteins in the hippocampus between saline and cocaine (hippocampal proteins; cocaine 20 mg/kg i.p. daily for 14 days): 85 proteins

COc1ccc2[nH]cc(CCN(C)C)c2c1 [5-MeO-DMT, 5-methoxy-N,N-dimethyltryptamine]
AUC of the Sholl plot [1, 2]: increased the AUC relative to control
AUC of the Sholl plot ([1]; ANA-12 study, cocaine and 5-MeO-DMT combined): increased the AUC relative to control
average neurite length ([1]; ANA-12 study, 5-MeO-DMT alone): significantly increased
average neurite length ([1]; ANA-12 study, 5-MeO-DMT in combination with cocaine): significantly increased
normalised AUC of the Sholl plot [1, 3]: increased the normalised AUC
normalised AUC of the Sholl plot ([1]; WAY100635 study, cocaine followed by 5-MeO-DMT): no change between the combination group and control
average neurite length ([1]; WAY100635 study, 5-Meo+vehicle): significantly increased
normalised AUC of the Sholl plot ([1]; ketanserin study, cocaine followed by 5-MeO-DMT): reduced AUC relative to control
neuronal structural complexity (normalised AUC) ([1]; agent alone): significantly increased neuronal structural complexity
neuronal structural complexity (normalised AUC) ([1]; cocaine+5-MeO-DMT combination): significantly increased neuronal structural complexity
normalised AUC of the Sholl plot [1, 4]: increased the normalised AUC
normalised AUC of the Sholl plot ([1]; rapamycin study, cocaine followed by 5-MeO-DMT): no change between the combination group and control
differential expression of proteins in the control hippocampus (hippocampal proteins; single i.p. dose (5-MeO-DMT 5 mg/kg, LSD 0.14 mg/kg, psilocybin 1 mg/kg, DOI 1 mg/kg) vs saline-saline, p<0.05, FC ±20%): 64 proteins
differential expression of proteins in the chronic cocaine hippocampus (hippocampal proteins; single i.p. dose after 14 days cocaine 20 mg/kg (5-MeO-DMT 5, LSD 0.14, psilocybin 1, DOI 1 mg/kg) vs cocaine-saline): 74 proteins
reversal of chronic cocaine mediated proteomic changes in the hippocampus (hippocampal proteins; single treatment (5-MeO-DMT 5, LSD 0.14, psilocybin 1, DOI 1 mg/kg i.p.)): 77%
